In publication PMC9203742 (Nature Communications, 2022):
pEC50: −log10 of the molar value. Values joined by “and” are separate entries in the source; they are usually repeats but may differ in a detail not shown here. Equal values may be shown once. Starred links: 1 amine or outer side, 2 acyl side, 3 side chain; linkers in the order of their positions; H or OH if unused. Positions of bridges follow the written chain, without caps; N, C: chain ends. Non-standard residues stand in square brackets, D forms with d. Residues, ends and D or L forms follow the SMILES beside them. X1 = CC(=O)NC(C(=O)OC(C(C)C)C(N[*:1])C(=O)[*:2])C(O)C(C)C; PhLac = O=C(O)[CH](O)Cc1ccccc1; NMeT = CN[CH](C(=O)O)[CH](C)O; NMeA = CN[CH](C)C(=O)O; NMeDha = C=C(NC)C(=O)O

How the values were obtained:
mGlu1(N264H) mutant = molecular target: T1, mGlu1(N264H) mutant (Rattus norvegicus, UniProt P23385, N264H); assay: Fura-2 Ca2+ imaging in HEK293 cells expressing mGlu1(N264H); format: cell-based; conditions: for Receptor activation (Ca2+ response, Δratio): 3 μM Pd(bpy) derivative; for Ca2+ response to Pd complex, individual cells #1-#20 (Fig.4e): single-cell values; for Effect of pre-treated inhibitor on 10 µM Pd(bpy)-induced Ca2+ responses: 10 µM LY367385, 1 µM FITM, 10 µM YM254890 or 1 µM U73122
T1 construct: expressed in transfected cells; host or cells: HEK293
T1 sequence (P23385 19-1199 N264H): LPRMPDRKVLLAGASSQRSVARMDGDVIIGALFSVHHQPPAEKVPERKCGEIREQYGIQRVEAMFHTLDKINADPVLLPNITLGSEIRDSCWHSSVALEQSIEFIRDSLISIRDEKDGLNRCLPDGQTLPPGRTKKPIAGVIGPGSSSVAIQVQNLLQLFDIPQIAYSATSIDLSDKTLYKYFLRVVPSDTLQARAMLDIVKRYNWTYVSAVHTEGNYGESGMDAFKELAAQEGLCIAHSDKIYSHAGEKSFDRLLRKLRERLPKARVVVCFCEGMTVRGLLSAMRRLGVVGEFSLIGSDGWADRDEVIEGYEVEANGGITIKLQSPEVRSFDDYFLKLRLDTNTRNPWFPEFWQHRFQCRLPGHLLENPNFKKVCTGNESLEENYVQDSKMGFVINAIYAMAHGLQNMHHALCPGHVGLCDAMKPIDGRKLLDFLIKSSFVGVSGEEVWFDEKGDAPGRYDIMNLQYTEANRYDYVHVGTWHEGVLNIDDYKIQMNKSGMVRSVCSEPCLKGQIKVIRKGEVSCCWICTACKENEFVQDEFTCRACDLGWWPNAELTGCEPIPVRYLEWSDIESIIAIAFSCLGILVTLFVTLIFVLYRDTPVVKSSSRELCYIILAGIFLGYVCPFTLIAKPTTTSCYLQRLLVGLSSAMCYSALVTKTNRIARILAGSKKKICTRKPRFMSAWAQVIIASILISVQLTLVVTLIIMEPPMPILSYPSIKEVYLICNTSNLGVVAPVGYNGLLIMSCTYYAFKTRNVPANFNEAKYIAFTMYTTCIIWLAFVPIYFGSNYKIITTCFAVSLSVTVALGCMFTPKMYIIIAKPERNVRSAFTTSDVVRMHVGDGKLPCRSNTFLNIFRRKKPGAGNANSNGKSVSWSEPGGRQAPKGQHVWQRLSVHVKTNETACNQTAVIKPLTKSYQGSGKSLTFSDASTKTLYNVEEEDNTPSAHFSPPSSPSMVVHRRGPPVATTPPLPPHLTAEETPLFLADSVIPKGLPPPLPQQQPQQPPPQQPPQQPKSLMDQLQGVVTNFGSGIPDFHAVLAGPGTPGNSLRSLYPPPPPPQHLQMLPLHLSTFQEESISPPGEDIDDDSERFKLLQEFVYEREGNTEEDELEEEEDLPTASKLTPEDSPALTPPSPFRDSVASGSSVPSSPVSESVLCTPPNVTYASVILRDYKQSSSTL

primary cortical neurons = assay: Fura-2 Ca2+ imaging (abnormal Ca2+ response) in cultured cortical neurons; conditions: co-treated 30 µM LY367385, 1 µM FITM or 10 µM U73122
mGlu1 P57H/N264H mutant = molecular target: T2, mGlu1 P57H/N264H mutant (Rattus norvegicus, UniProt P23385, N264H/P57H); assay: Fura-2 Ca2+ imaging in HEK293 cells expressing mGlu1 P57H/N264H; format: cell-based; conditions: 10 μM metal ion or metal complex
T2 construct: expressed in transfected cells; host or cells: HEK293
T2 sequence (P23385 19-1199 P57H/N264H): as the sequence (P23385 19-1199 N264H) above, with P39H counted along it

mGlu1 K61H/N264H mutant = molecular target: T3, mGlu1 K61H/N264H mutant (Rattus norvegicus, UniProt P23385, K61H/N264H); assay: Fura-2 Ca2+ imaging in HEK293 cells expressing mGlu1 K61H/N264H; format: cell-based; conditions: 10 μM metal ion or metal complex
T3 construct: expressed in transfected cells; host or cells: HEK293
T3 sequence (P23385 19-1199 K61H/N264H): as the sequence (P23385 19-1199 N264H) above, with K43H counted along it

mGlu1 P58H/N264H mutant = molecular target: T4, mGlu1 P58H/N264H mutant (Rattus norvegicus, UniProt P23385, N264H/P58H); assay: Fura-2 Ca2+ imaging in HEK293 cells expressing mGlu1 P58H/N264H; format: cell-based; conditions: 10 μM metal ion or metal complex
T4 construct: expressed in transfected cells; host or cells: HEK293
T4 sequence (P23385 19-1199 P58H/N264H): as the sequence (P23385 19-1199 N264H) above, with P40H counted along it

mGlu1 A59H/N264H mutant = molecular target: T5, mGlu1 A59H/N264H mutant (Rattus norvegicus, UniProt P23385, A59H/N264H); assay: Fura-2 Ca2+ imaging in HEK293 cells expressing mGlu1 A59H/N264H; format: cell-based; conditions: 10 μM metal ion or metal complex
T5 construct: expressed in transfected cells; host or cells: HEK293
T5 sequence (P23385 19-1199 A59H/N264H): as the sequence (P23385 19-1199 N264H) above, with A41H counted along it

mGlu1 E60H/N264H mutant = molecular target: T6, mGlu1 E60H/N264H mutant (Rattus norvegicus, UniProt P23385, E60H/N264H); assay: Fura-2 Ca2+ imaging in HEK293 cells expressing mGlu1 E60H/N264H; format: cell-based; conditions: 10 μM metal ion or metal complex
T6 construct: expressed in transfected cells; host or cells: HEK293
T6 sequence (P23385 19-1199 E60H/N264H): as the sequence (P23385 19-1199 N264H) above, with E42H counted along it

Question: Which “Receptor activation (Ca2+ response, Δratio)” value (mGlu1(N264H) mutant) does the source give for `OCCOCCOCc1ccnc(-c2cc(COCCOCCO)ccn2)c1.[Cl][Pd][Cl]` [Pd(EG-bpy)] here?
Answer: weakened responses

Question: And the “Ca2+ response to Pd complex, individual cells #1-#20 (Fig.4e)” value (from here on “Ca2+ response to Pd complex”) (mGlu1(N264H) mutant)?
Answer: -0.02498 and -0.009 and -0.01094 and -0.001385 and -0.02155 and -0.01075 and -0.019 and 0.05131 and 0.02474 and 0.01748 and 0.01646 and -0.03188 and 0.7968 and -0.03567 and 0.2621

Question: With `OCc1ccnc(-c2cc(CO)ccn2)c1.[Cl][Pd][Cl]` [Pd(OH-bpy)] as the compound, how does the “Ca2+ response, concentration dependence (Fig.4f)” value (“Ca2+ response … (Fig.4f)” below) (mGlu1(N264H) mutant; 0.01 µM Pd complex) read?
Answer: -0.02066

Question: And the “Ca2+ response … (Fig.4f)” value (mGlu1(N264H) mutant; 0.03 µM Pd complex)?
Answer: 0.003658

Question: What about the “Ca2+ response … (Fig.4f)” value (mGlu1(N264H) mutant; 0.1 µM Pd complex) of the same compound?
Answer: 0.0176

Question: And the “Ca2+ response … (Fig.4f)” value (mGlu1(N264H) mutant; 0.3 µM Pd complex)?
Answer: 0.1704

Question: And the “Ca2+ response … (Fig.4f)” value (mGlu1(N264H) mutant; 1 µM Pd complex)?
Answer: 0.2068

Question: What about the “Ca2+ response … (Fig.4f)” value (mGlu1(N264H) mutant; 3 µM Pd complex) of the same compound?
Answer: 0.4989

Question: What about the “Receptor activation (Ca2+ response, Δratio)” value (mGlu1(N264H) mutant) of the same compound?
Answer: successfully activated

Question: And the “Ca2+ response … (Fig.4f)” value (mGlu1(N264H) mutant; 10 µM Pd complex)?
Answer: 0.5148

Question: What about the “Ca2+ response … (Fig.4f)” value (mGlu1(N264H) mutant; 30 µM Pd complex) of the same compound?
Answer: 0.5694

Question: What about the pEC50 (mGlu1(N264H) mutant; HEK293 cells, Fura-2, read-out: EC50, Ca2+ response (Δratio)) of the same compound?
Answer: 5.96

Question: And the “Ca2+ response to Pd complex” value (mGlu1(N264H) mutant)?
Answer: 0.09363 and -0.01751 and 0.927 and 0.3494 and 0.8377 and 0.7197 and 0.003631 and 0.04434 and -0.01218 and -0.01678 and 1.414 and 0.5875 and -0.01008 and 0.646 and 0.8168 and 0.6391 and 0.4133 and 1.082 and 0.03592 and 1.1834

Question: How did the “Receptor activation (Ca2+ response, Δratio)” value (mGlu1(N264H) mutant) turn out when `O=S(=O)([O-])CCCOCc1ccnc(-c2cc(COCCCS(=O)(=O)[O-])ccn2)c1.[Cl][Pd][Cl].[Na+].[Na+]` [Pd(di-sulfo-bpy)] was run?
Answer: failed to activate

Question: And the “Ca2+ response to Pd complex” value (mGlu1(N264H) mutant)?
Answer: 0.01072 and 0.008046 and 0.01006 and 0.04502 and 0.003731 and 0.0195 and 0.007615 and 0.1169 and -0.002485 and 0.009585 and 0.3142 and 0.02231 and 0.005731 and 0.02578 and 0.01671

Question: `COc1ccc2c(c1)CC[C@@H]1[C@@H]2CC[C@]2(C)[C@@H](NCCCCCCN3C(=O)C=CC3=O)CC[C@@H]12` [U73122, reference compound] was tested. Which “Effect of pre-treated inhibitor on 10 µM Pd(bpy)-induced Ca2+ responses” value (mGlu1(N264H) mutant) did it give?
Answer: suppressed

Question: And the “Effect of inhibitor on 30 µM Pd(bpy)-induced [Ca2+]i elevation” value (primary cortical neurons)?
Answer: suppressed by neither

Question: `C=C1C(=O)NC(C)C(=O)N(C)C(C)C(=O)NC(C(OC(=O)C(NC(C)=O)C(O)C(C)C)C(C)C)C(=O)N(C)C(C(C)OC)C(=O)OC(C)C(NC(C)=O)C(=O)OC(Cc2ccccc2)C(=O)N1C` (centres unmarked) [YM-254890, reference compound] (Ac-T[PhLac][NMeDha]A[NMeA][X1][NMeT](Me); ester 1-C; configuration not given here) was tested. Which “Effect of pre-treated inhibitor on 10 µM Pd(bpy)-induced Ca2+ responses” value (mGlu1(N264H) mutant) did it give?
Answer: suppressed

Question: How did the “Receptor activation ([Ca2+]i change, Δratio)” value (mGlu1 P57H/N264H mutant) turn out when `[Zn+2]` [Zn^2+, reference compound] was run?
Answer: failed to activate

Question: And the “Receptor activation ([Ca2+]i change, Δratio)” value (mGlu1 K61H/N264H mutant)?
Answer: failed to activate

Question: What about the “Receptor activation ([Ca2+]i change, Δratio)” value (mGlu1 P58H/N264H mutant) of the same compound?
Answer: failed to activate

Question: What about the “Receptor activation ([Ca2+]i change, Δratio)” value (mGlu1 A59H/N264H mutant) of the same compound?
Answer: failed to activate

Question: And the “Receptor activation ([Ca2+]i change, Δratio)” value (mGlu1 E60H/N264H mutant)?
Answer: failed to activate
